Converted amounts (≈) assume the structure as drawn.
How the values were obtained:
Type in all cases: functional
Candida tropicalis [1] = assay: Tested for antifungal activity against 5-FC resistant strain Candida tropicalis CIP 1745-88 after 48 hr incubation
Candida tropicalis [2] = assay: Tested for antifungal activity against amp B resistant strain Candida tropicalis CIP 1275-81 after 48 hr incubation
Saccharomyces cerevisiae = assay: Tested for antifungal activity against Saccharomyces cerevisiae ATCC 28 383 after 48 hr incubation; details: ATCC 28, 48 h
Candida albicans [3] = assay: Tested for antifungal activity against azole resistant strain Candida albicans CIP 1760-88 after 48 hr incubation
Candida albicans [4] = assay: Tested for antifungal activity against Candida albicans CIP 1180-79 after 48 h incubation

| SMILES | MIC (Candida tropicalis [1]) | MIC (Candida tropicalis [2]) | MIC (Saccharomyces cerevisiae) | MIC (Candida albicans [3]) | MIC (Candida albicans [4]) |
| --- | --- | --- | --- | --- | --- |
| CC(C)CCC[C@@H](C)C1CC[C@H]2[C@@H]3[C@@H](N)CC4C[C@@H](O)CC[C@]4(C)[C@H]3CC[C@]12C (some centres undefined) | 3.1 µg/mL (≈ 7.68 µM) | 1.5 µg/mL (≈ 3.72 µM) | 0.4 µg/mL (≈ 0.991 µM) | 1.5 µg/mL (≈ 3.72 µM) | 1.5 µg/mL (≈ 3.72 µM) |
| CC(C)CCC[C@@H](C)C1CC[C@H]2[C@@H]3[C@H](N)CC4C[C@@H](O)CC[C@]4(C)[C@H]3CC[C@]12C (some centres undefined) | 3.1 µg/mL (≈ 7.68 µM) | 1.5 µg/mL (≈ 3.72 µM) | 3.1 µg/mL (≈ 7.68 µM) | 3.1 µg/mL (≈ 7.68 µM) | 6.2 µg/mL (≈ 15.4 µM) |
| CC(C)CCCC(C)[C@H]1CC[C@H]2C3C(N)C=C4C[C@@H](O)CCC4(C)[C@H]3CCC12C (some centres undefined) | 3.1 µg/mL (≈ 7.72 µM) | 1.5 µg/mL (≈ 3.73 µM) | 2.4 µg/mL (≈ 5.97 µM) | 2.3 µg/mL (≈ 5.73 µM) | 2.6 µg/mL (≈ 6.47 µM) |
| C[C@@H]1[C@H](O)[C@@H](C)/C=C/C=C/C=C/C=C/C=C/C=C/C=C/[C@H](O[C@@H]2O[C@H](C)[C@@H](O)[C@H](N)[C@@H]2O)C[C@@H]2O[C@](O)(C[C@@H](O)C[C@@H](O)[C@H](O)CC[C@@H](O)C[C@@H](O)CC(=O)O[C@H]1C)C[C@H](O)[C@H]2C(=O)O [AMPHOTERICIN B] | – | 12.5 µg/mL (≈ 13.5 µM) | 0.3 µg/mL (≈ 0.325 µM) | – | 0.4 µg/mL (≈ 0.433 µM) |
| c1ccc(-c2ccc(C(c3ccccc3)n3ccnc3)cc2)cc1 (centres undefined) [BIFONAZOLE] | – | – | 6.2 µg/mL (≈ 20 µM) | 50 µg/mL (≈ 161 µM) | 12.5 µg/mL (≈ 40.3 µM) |
| Nc1nc(=O)[nH]cc1F [FLUCYTOSINE] | > 100 µg/mL | – | 6.2 µg/mL (≈ 48 µM) | – | 50 µg/mL (≈ 387 µM) |
